The source of these data is the NIST ThermoML archive (doi:10.1016/j.jct.2017.04.003).

Numbers after ± are expanded uncertainties.

Take `[Na+].[Na+].[O-][O-]` [sodium peroxide]: the Normal melting temperature (Crystal 1, DTA) was found to be 666.6 ± 10 °C. Moreover, where the note is “Crystal 2, DSC”, the Triple point temperature was found to be 756.8 ± 10 K.
